The results in this text go back to ChEMBL document CHEMBL4308882, “Synthesis, biological evaluation and molecular dynamic simulations of novel Benzofuran-tetrazole derivatives as potential agents against Alzheimer's disease” (2019).

The test system of assay [1] is Caenorhabditis elegans. The assay is described as follows: Protection against amyloid beta aggregation-induced paralysis in Caenorhabditis elegans CL4176 harboring temperature-inducible human amyloid beta transgene assessed as inhibition of paralysis at 1 mM pretreated for 48 hrs at 15 degC followed by heat stress stimulation to 25 degC for 35 hrs relative to control. It is filed as functional.

Assay [2] has as its system Caenorhabditis elegans. The assay is described as follows: Antialzheimer activity in Caenorhabditis elegans CL4176 harboring temperature-inducible human amyloid beta transgene assessed as reduction in amyloid beta aggregation at 1 mM pretreated for 48 hrs at 15 degC followed by heat stress stimulation to 25 degC for 35 hrs by thioflavin-s staining based microscopic analysis. It is filed as functional, organism-based.

The test system of assay [3] is Caenorhabditis elegans. As to the kind of experiment: Antialzheimer activity in Caenorhabditis elegans […] harboring temperature-inducible human amyloid beta transgene assessed as reduction in AChE level at 1 mM pretreated for 48 hrs at 15 degC followed by heat stress stimulation to 25 degC for 35 hrs by amplex red assay. It is filed as functional, organism-based.

Activity calls are given as the source filed them. The rule behind the calls is not given here.

A word on the inhibition: it is the change of the read-out against control, counted positive when it falls. With `Cc1ccc(NC(c2cn(-c3ccc(F)cc3)nc2-c2cc3ccccc3o2)c2nnnn2C(C)(C)C)cc1` (stereo unspecified), the inhibition at 1000 µM in the assay on Caenorhabditis elegans [1] came out at 42.1%. In the assay on Caenorhabditis elegans [2], the inhibition entry was “Active”.
For `CC(C)(C)n1nnnc1C(Nc1ccc(C(F)(F)F)c(Br)c1)c1cn(-c2ccccc2)nc1-c1cc2ccccc2o1` (stereo unspecified), the inhibition at 1000 µM in the assay with Caenorhabditis elegans [1] came to 63.8%. Moreover, in the assay with Caenorhabditis elegans [2], the inhibition entry is “Active”.
For `Cc1ccc(NC(c2cn(-c3ccccc3)nc2-c2cc3ccccc3o2)c2nnnn2C(C)(C)C)cc1F` (stereo unspecified), the result in the assay on Caenorhabditis elegans [3] was Active. Further, the inhibition at 1000 µM in the assay on Caenorhabditis elegans [1] turned out to be 45.4%. Moreover, the inhibition entry with Caenorhabditis elegans [2] is “Active”.
For the compound `COc1ccc(NC(c2cn(-c3ccccc3)nc2-c2oc3ccccc3c2C)c2nnnn2C(C)(C)C)cc1` (stereo unspecified), in the assay on Caenorhabditis elegans [3], the outcome was Active. Besides, the inhibition at 1000 µM in the assay on Caenorhabditis elegans [1] amounted to 67.1%. In addition, in the assay with Caenorhabditis elegans [2], the inhibition result was “Active”.
On to `CC(C)(C)n1nnnc1C(Nc1ccc(F)cc1)c1cn(-c2ccccc2)nc1-c1cc2ccccc2o1` (stereo unspecified), for which, in the assay on Caenorhabditis elegans [3], the outcome was Active. Moreover, the inhibition at 1000 µM in the assay on Caenorhabditis elegans [1] worked out at 56.5%. Moreover, the inhibition result in the assay on Caenorhabditis elegans [2] was “Active”.
Regarding `Cc1ccc(NC(c2cn(-c3ccc(Cl)cc3)nc2-c2oc3ccccc3c2C)c2nnnn2C(C)(C)C)cc1` (stereo unspecified), in the assay with Caenorhabditis elegans [3], the outcome was Active. The inhibition at 1000 µM in the assay with Caenorhabditis elegans [1] worked out at 46.7%. Further, the inhibition entry in the assay with Caenorhabditis elegans [2] was “Active”.
